Results reported in US11046686B2, “Thiadiazole IRAK4 compounds” (Gilead Sciences, Inc., priority 2018, dated 2021).

Test system: TNFα
Experiment: IRAK4 Monocyte TNFα Cell Based Assay
Design: species or system human
Details: human monocytes; second part of Table 2, compounds 33-343; unit inferred; read-out: EC50 MONO TNF HTRF
Method in brief: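 TNFα release quantified by HTRF (cryptate/XL665 antibody pair, overnight at RT) after 1 h compound pre-incubation (0.1% DMSO) and 4 h LPS challenge at 50 pg/ml, 37 °C, 5,000 monocytes per well. Signal ratio normalised between unstimulated (0%) and stimulated (100%) controls.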

| EC50 [nM] | Compound |
| --- | --- |
| 5 | CC(C)Nc1cc(-c2ccc3cc(C#N)cnn23)ncc1-c1nnc(N2C[C@H]3CC[C@@H](C2)[C@@H]3NC(=O)[C@H]2C[C@](C)(O)C2)s1 [Example 92, (1r,3R)-N-((1R,5S,8s)-3-(5-(6-(3-cyanopyrrolo[1,2-b]pyridazin-7-yl)-4-(isopropylamino)pyridin-3-yl)-1,3,4-thiadiazol-2-yl)-3-azabicyclo[3.2.1]octan-8-yl)-3-hydroxy-3-methylcyclobutane-1-carboxamide] |
| 80.5 | CC(C)Nc1cc(-c2ccc3cc(C#N)cnn23)ncc1-c1nnc(N2CC(N3CCC(F)(F)C3)C2)s1 [Compound 328] |
| 25.7 | CC(C)Nc1cc(-c2ccc3cc(C#N)cnn23)ncc1-c1nnc(N2CC3CCC(C2)C3(O)C(F)(F)F)s1 (centres unmarked) [Example 159, 7-(5-(5-(8-hydroxy-8-(trifluoromethyl)-3-azabicyclo[3.2.1]octan-3-yl)-1,3,4-thiadiazol-2-yl)-4-(isopropylamino)pyridin-2-yl)pylrolo[1,2-b]pyridazine-3-carbonitrile] |
| 68 | CC(=O)NC1CC2CC1CC2c1nnc(-c2cnc(-c3ccc4cc(C#N)cnn34)cc2NC(C)C)s1 (centres unmarked) [Example 285, N-(5-(5-(6-(3-cyanopyrrolo[1,2-b]pyridazin-7-yl)-4-(isopropylamino)pyridin-3-yl)-1,3,4-thiadiazol-2-y)bicyclo[2.2.1]heptan-2-yl)acetamide] |
| 11.1 | CC(C)Nc1cc(-c2ccc3cc(C#N)cnn23)ncc1-c1nnc(C(=O)N2CCC[C@H]2CO)s1 [Example 217] |

| Compound | EC50 [nM] |
| --- | --- |
| CC(=O)N1[C@@H]2COC[C@H]1CN(c1nnc(-c3cnc(-c4ccc5cc(C#N)cnn45)cc3NC3CCOCC3)s1)C2 [Compound 269, 7-(5-(5-((1R,5S)-9-acety1-3-oxa-7,9-diazabicyclo[3.3.1]nonan-7-yl)-1,3,4-thiadiazol-2-yl)-4-((tetrahydro-2H-pyran-4-yl)amino)pyridin-2-yl)pyrrolo[1,2-b]pyridazine-3-carbonitrile] | 5.8 |

Target: IRAK4 enzyme (Homo sapiens (Human), UniProt Q9NWZ3)
Experiment: IRAK4 Biochemical Assay (TR-FRET, STK1 KinEASE)
Details: not given
Protocol: IRAK4 enzyme (Carna Biosciences, Chuo-ku, Kobe, Japan) activity was measured by detecting phosphorylated peptide substrate formation using an antibody against the phosphorylated peptide substrate. This is a time-resolved fluorescence resonance energy transfer (TR-FRET) immunoassay, based on the STK1 KinEASE Assay (Cisbio, Bedford, Mass.). The assay was designed as a simple two-step, endpoint assay (a 5 μl enzyme reaction followed by 5 μl stop and detect Solution) performed in ProxiPlate-384 Plus plates (Perkin Elmer, Waltham, Mass.). […] Compounds diluted in DMSO were spotted into 384 well plates using a Labcyte® Echo 550 Liquid Handling System prior to addition of IRAK4 enzyme and peptide substrate. Reaction solutions were delivered using a Multi-Flo (Bio-Tek Instruments). The enzyme and peptide solution was incubated with compound for 15 minutes at room temp before the reaction was initiated by the addition of ATP. The standard 5 μl reaction mixture contained 500 μM ATP, […] peptide (STK1 Peptide), 0.75 nM of IRAK4 in reaction buffer (50 mM HEPES, pH 7.0, 0.02% NaN3, 0.01% BSA, 0.1 mM Orthovanadate, 5 mM […], 0.025% NP-40, 1 mM DTT). After 120 min of incubation at room temperature, 5 μl of Stop and Detect Solution (1:100 Cryptate labeled anti-phosphorylated peptide antibody solution and 125 nM Tracer in a 50 mM HEPES pH 7.0 detection buffer containing sufficient EDTA) was added. The plate was then further incubated for 60 minutes at room temperature and read on Envision 2103 Multilabeled reader (PerkinElmer) with excitation/emission/FRET emission at 340 nm/615 nm665 nm, respectively. Fluorescence intensities at 615 nm and 665 nm emission wavelengths were expressed as aratio (665 nm/615 nm). Percentage of inhibition was calculated as below: % Inhibition=100×(Ratiosample−Ratio0% Inhibition)/(Ratio100% Inhibition−Ratio0% Inhibition)
The 0% inhibition value comes from control wells lacking inhibitor.

IRAK4 enzyme, sequence (Q9NWZ3 whole entry): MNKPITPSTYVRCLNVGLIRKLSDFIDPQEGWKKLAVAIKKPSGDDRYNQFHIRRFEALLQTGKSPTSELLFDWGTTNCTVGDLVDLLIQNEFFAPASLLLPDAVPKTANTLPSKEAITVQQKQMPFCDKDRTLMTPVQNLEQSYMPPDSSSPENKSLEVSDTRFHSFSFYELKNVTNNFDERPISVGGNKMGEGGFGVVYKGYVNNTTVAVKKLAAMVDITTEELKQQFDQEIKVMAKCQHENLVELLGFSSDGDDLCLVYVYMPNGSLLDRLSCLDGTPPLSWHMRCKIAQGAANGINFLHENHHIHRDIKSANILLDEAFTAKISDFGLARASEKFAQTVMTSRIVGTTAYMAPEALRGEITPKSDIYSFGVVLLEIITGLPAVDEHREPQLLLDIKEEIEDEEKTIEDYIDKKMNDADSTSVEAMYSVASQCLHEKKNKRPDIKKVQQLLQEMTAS

| Compound | IC50 [nM] |
| --- | --- |
| CC(C)Nc1cc(-c2ccc3cc(C#N)cnn23)ncc1-c1nnc(C(=O)N2CCC[C@@H]2CN)s1 [Compound 230, (R)-7-(5-(5-(2-(aminomethyl)pyrrolidine-1-carbonyl)-1,3,4-thiadiazol-2-yl)-4-(isopropylamino)pyridin-2-yl)pyrrolo[1,2-b]pyridazine-3-carbonitrile] | 0.74 |
| CC(C)Nc1cc(-c2ccc3cc(C#N)cnn23)ncc1-c1nnc(N2C[C@H]3CC[C@@H](C2)[C@@H]3NC(=O)[C@@H](C)O)s1 [Example 90, (R)—N-((1R,5S,8s)-3-(5-(6-(3-cyanopyrrolo[1,2-b]pyridazin-7-yl)-4-(isopropylamino)pyridin-3-yl)-1,3,4-thiadiazol-2-yl)-3-azabicyclo[3.2.1]octan-8-yl)-2-hydroxypropanamide] | 1.39 |
| CC(C)Nc1cc(-c2ccc3cc(C#N)cnn23)ncc1-c1nnc(N2C[C@H]3CC[C@@H](C2)[C@@H]3NC(=O)N2CCN(C)CC2)s1 [Example 96, N-((1R,5S,8s)-3-(5-(6-(3-cyanopyrrolo[1,2-b]pyridazin-7-yl)-4-(isopropylamino)pyridin-3-yl)-1,3,4-thiadiazol-2-yl)-3-azabicyclo[3.2.1]octan-8-yl)-4-methylpiperazine-1-carboxamide] | 0.58 |
| CC(C)Nc1cc(-c2ccc3cc(C#N)cnn23)ncc1-c1nnc(C(=O)N2CCC[C@H]2CN)s1 [Example 229, (S)-7-(5-(5-(2-(aminomethyl)pyrrolidine-1-carbonyl)-1,3,4-thiadiazol-2-yl)-4-(isopropylamino)pyridin-2-yl)pyrrolo[1,2-b]pyridazine-3-carbonitrile] | 0.64 |
| CC(=O)N1CCN(C(=O)N[C@@H]2[C@@H]3CC[C@H]2CN(c2nnc(-c4cnc(-c5ccc6cc(C#N)cnn56)cc4NC(C)C)s2)C3)CC1 [Example 104, 4-acetyl-N-((1R,5S,8s)-3-(5-(6-(3-cyanopyrrolo[1,2-b]pyridazin-7-yl)-4-(isopropylamino)pyridin-3-yl)-1,3,4-thiadiazol-2-yl)-3-azabicyclo[3.2.1]octan-8-yl)piperazine-1-carboxamide] | 0.99 |
